Experimental data reported in patent US4582847A, “4-chloro-2-phenylimidazole-5-acetic acid derivatives and use as diuretics and hypotensives” (Takeda Chemical Industries, Ltd., priority 1983, dated 1986).

Tests used:
[1] = test system: rats; test: Diuretic action in rats (method of W. L. Lipschitz); format: in vivo; conditions: rat, 30 mg/kg P.O., n = 6; control group = 1.00
Description: (§1) The test was conducted in rats and dogs, in accordance with the method of W. L. Lipschitz. The numerals in the table denote the values for the treated groups with the value for control group being taken as 1.00. [formula]

[2] = test system: dogs; test: Diuretic action in dogs (method of W. L. Lipschitz); format: in vivo; conditions: dog, n = 3, control group = 1.00
Description: as §1

[3] = test system: dogs with renal hypertension; test: Antihypertensive action in dogs with renal hypertension; format: in vivo, beagle dog; conditions: dose 10 mg, oral; for Diastolic blood pressure after 1 hr. / Systolic blood pressure after 1 hr.: 1 hr after administration; for Diastolic blood pressure after 2 hrs. / Systolic blood pressure after 2 hrs.: 2 hrs after administration; for Diastolic blood pressure after 4 hrs. / Systolic blood pressure after 4 hrs.: 4 hrs after administration; for Diastolic blood pressure after 8 hrs. / Systolic blood pressure after 8 hrs.: 8 hrs after administration; for Diastolic blood pressure before administration / Systolic blood pressure before administration: before administration (baseline)
From the text: Antihypertensive action in dogs with renal hypertension
Male adult beagle dogs were laparotomized under pentobarbital anesthesia and the left renal artery was constricted with a silver clip so as to reduce the renal blood flow to about 30%. After the operation, the animals were kept for at least 2 months and the individuals having a systolic pressure of at least about 180 mmHg were used in the test. […] Blood pressure determinations were made using a plethysmograph (Narco, DE-300). Each drug was sealed in a gelatin capsule and administered by the oral route. The blood pressure was monitored up to 8 hours after administration.

[4] = test system: Angiotensin II (rabbit aortic vessel); test: Angiotensin II-antagonizing activity (rabbit aortic vessel); conditions: AII 4×10^-9 M, 15 min treatment
Description: Angiotensin II (briefly, AII)-antagonizing activity of the compound (I) of this invention (rabbit aortic vessel)
The method of preparing the aortic vessel specimens and the reaction conditions employed were as described in European Journal of Pharmacology 18, 316 (1972). AII was used in a concentration of 4×10^-9 M, and the change in isometric tension of the untreated vessel specimen was measured as control. As a test, the vessel was treated with the test compound for 15 minutes and a similar determination was made. The two results were compared and the inhibition rate was calculated by means of the following formula.
Inhibition rate (%) [formula]

Structure (SMILES) | Diuretic action UK V [1] | Diuretic action UNa V [1] | Diuretic action UV [1] | Diuretic action UK V ([2]; 3 mg/kg P.O.) | Diuretic action UNa V ([2]; 3 mg/kg P.O.) | Diuretic action UV ([2]; 3 mg/kg P.O.) | Diuretic action UK V ([2]; 30 mg/kg P.O.) | Diuretic action UNa V ([2]; 30 mg/kg P.O.) | Diuretic action UV ([2]; 30 mg/kg P.O.) | Diastolic blood pressure after 1 hr. [3] [mmHg] | Systolic blood pressure after 1 hr. [3] [mmHg] | Diastolic blood pressure after 2 hrs. [3] [mmHg] | Systolic blood pressure after 2 hrs. [3] [mmHg] | Diastolic blood pressure after 4 hrs. [3] [mmHg] | Systolic blood pressure after 4 hrs. [3] [mmHg] | Diastolic blood pressure after 8 hrs. [3] [mmHg] | Systolic blood pressure after 8 hrs. [3] [mmHg] | Diastolic blood pressure before administration [3] [mmHg] | Systolic blood pressure before administration [3] [mmHg] | Inhibition rate (%) ([4]; concentration of drug 10^-5 M) | other results
COc1ccc(Cn2c(-c3ccccc3)nc(Cl)c2CC(=O)O)cc1C [4-Chloro-1-(4-methoxy-3-methylbenzyl)-2-phenylimidazole-5-acetic acid, reference compound] | 3.33 | 6.36 | 8.25 | 0.86 | 1.10 | 1.20 | 2.53 | 1.73 | 1.67 | 113 ± 6 | 185 ± 5 | 116 ± 7 | 181 ± 6 | 115 ± 4 | 181 ± 2 | 115 ± 5 | 188 ± 5 | 123 ± 6 | 189 ± 2 | – | –
O=C(O)Cc1c(Cl)nc(-c2ccccc2)n1Cc1ccc(O)cc1 [4-Chloro-1-(4-hydroxybenzyl)-2-phenylimidazole-5-acetic acid, reference compound] | – | – | – | – | – | – | – | – | – | – | – | – | – | – | – | – | – | – | – | 46 | –
CC(=O)Oc1ccc(Cn2c(-c3ccccc3)nc(Cl)c2CC(=O)O)cc1C [Ref. Example 3, 4-chloro-1-(4-acetoxy-3-methylbenzyl)-2-phenylimidazole-5-acetic acid] | 2.92 | 6.54 | 8.22 | – | – | – | – | – | – | – | – | – | – | – | – | – | – | – | – | – | –
CCCC(=O)Oc1ccc(Cn2c(-c3ccccc3)nc(Cl)c2CC(=O)O)cc1C [Ref. Example 4, 4-chloro-1-(4-n-butyryloxy-3-methylbenzyl)-2-phenylimidazole-5-acetic acid] | 2.80 | 5.82 | 6.69 | – | – | – | – | – | – | – | – | – | – | – | – | – | – | – | – | – | –
Cc1cc(Cn2c(-c3ccccc3)nc(Cl)c2CC(=O)O)ccc1O [Example 1, 4-chloro-1-(4-hydroxy-3-methylbenzyl)-2-phenylimidazole-5-acetic acid] | – | – | – | 2.20 | 2.97 | 3.41 | 4.88 | 4.24 | 5.11 | 123 ± 4 | 189 ± 5 | 93 ± 7 | 165 ± 6 | 89 ± 7 | 155 ± 8 | 110 ± 8 | 167 ± 8 | 124 ± 2 | 201 ± 5 | 100 | Inhibition rate (%) ([4]; concentration of drug 10^-6 M): 75%
